# Source: patent US20060135485A1, “Microbicidal compositions and their use” (priority 2002, published 2006)
# Assays:
# Format in all cases: cell-based
# [1] = tested on: Pseudomonas aeruginosa ATCC 9027, Candida albicans ATCC 10231, Aspergillus niger ATCC 16404; assay: Preservation loading test in styrene butadiene emulsions; settings: sole active component, neutral conditions, typical polymer emulsion; bacteria, yeasts and moulds
# Experimental: Styrene Butadiene Emulsions were inoculated with 1×10^6 of the test culture, stored for 7 days at 25° C. and then a semi-quantitative determination of colony forming units was carried out. This loading test was carried out with a representative bacteria (Pseudomonas aeruginosa ATCC 9027), a representative yeast (Candida albicans ATCC 10231) and a representative mould (Aspergillus niger ATCC 16404) over consecutive weeks until the product has been subjected to (at least) three separate loadings of each culture type. The concentration of preserving agent at which no recovery of the test organisms was observed is the end point of the test and adequacy of preservation is assumed.
# [2] = tested on: Aspergillus niger (ASN) ATCC 16404; assay: MIC culture tube dilution test; settings: pH 7.2±0.2, 72 hour incubation at 36° C.
# Experimental: (§1) Microbiocides and microbiocidal properties were determined experimentally. Very well suited test methods are described in detail in the German Society for Hygiene and Microbiology (GGHM) for the examination of disinfectants. In order to determine the MIC, culture tube dilution tests were carried out according to the “regulations for the examination and evaluation of chemical disinfection procedures (Edition 1.1.81, procedures slightly modified)” using a […]-soya bean meal peptide medium. The dilution was carried out with water of standardised hardness without further agents such as surfactants. The adjustment of the pH values to 7.2±0.2 was carried out with 0.1 mol/NaOH or 0.1 mol/HCl. The gradation of test concentrations was made according to the concentration steps proposed by the GGHM. The evaluation was carried out after a 72 hour incubation at 36° C. [table] One part polyvinylamine, consisting of 95 wt % vinyl units and 5 wt % vinylformamide units with a K-value of 90 were mixed with 4.2 parts cyclohexyldiazeniumdioxy potassium. […] The effectiveness was determined according to the abovementioned methods. MIC stated here gives the minimal effective concentration, in which a.i. (active ingredient) means the active component.
# [3] = tested on: Candida albicans (CA) ATCC 10231; assay: MIC culture tube dilution test; settings: pH 7.2±0.2, 72 hour incubation at 36° C.
# Experimental: as §1
# [4] = tested on: Escherichia coli (EC) ATCC 11229; assay: MIC culture tube dilution test; settings: pH 7.2±0.2, 72 hour incubation at 36° C.
# Experimental: as §1
# [5] = tested on: Proteus mirabilis (PRM) ATCC 14153; assay: MIC culture tube dilution test; settings: pH 7.2±0.2, 72 hour incubation at 36° C.
# Experimental: as §1
# [6] = tested on: Pseudomonas aeruginosa (PSA) ATCC 15442; assay: MIC culture tube dilution test; settings: pH 7.2±0.2, 72 hour incubation at 36° C.
# Experimental: as §1
# [7] = tested on: Staphylococcus aureus (STA) ATCC 6538; assay: MIC culture tube dilution test; settings: pH 7.2±0.2, 72 hour incubation at 36° C.
# Experimental: as §1
smiles,measurement,setting,value
"O=NN(O)C1CCCCC1.[K] [KHDO, potassium salt of N′-hydroxy-N-cyclohexyl-diazenium oxide]",Killing of spoilage microorganisms (in words),[1],able not only to inhibit but actively kill a representative range of spoilage microorganisms
same,MIC Cyclohexyldiazeniumdioxy potassium [ppm a.i.] B,[2],175 ppm a.i.
same,MIC Cyclohexyldiazeniumdioxy potassium [ppm a.i.] B,[3],350 ppm a.i.
same,MIC Cyclohexyldiazeniumdioxy potassium [ppm a.i.] B,[4],350 ppm a.i.
same,MIC Cyclohexyldiazeniumdioxy potassium [ppm a.i.] B,[5],750 ppm a.i.
same,MIC Cyclohexyldiazeniumdioxy potassium [ppm a.i.] B,[6],3000 ppm a.i.
same,MIC Cyclohexyldiazeniumdioxy potassium [ppm a.i.] B,[7],750 ppm a.i.
